# Patent publication US9322034B2, “Compositions and methods for detecting and modulating cell death by a translation regulated gene expression system” (Wayne State University, priority 2007, dated 2016)
# What was measured:
# [1] = test system: HEK293 TRplp-fLUC subclone #3 and HEK293 TRdm-fLUC subclone #45; test: Microplate reader temporal response, lysed cell luciferase assay; type: cell-based, human; conditions: 6.7 micromolar
# Method: For this example, HEK293 cells expressing the TRplp-EYFP, TRdm-EYFP, TRplp fLUC and TRdm-fLUC expression cassettes are evaluated using a microplate reader. To quantitate the TR translational response, 24,000 cells are plated in a 96-well microtiter plates and allowed to grow for about 40 hr to achieve the proper cell density prior to incubation with a toxic agent. Each well is cultured with complete DMEM medium containing either no toxin or a defined concentration of toxin and incubated at 37 C for specific time periods. At that time, fluorescence or chemiluminescence on a FLUOstar Optima (BMG Labtech) microplate reader is used measure TR-ORF response.
# For a lysed cell assay, cells are cultured as above, but in regular flat bottom 96-well trays. After toxin incubation, the 96-well plates are centrifuged as above. The media is removed, replaced with 50 microliters of Cell Lysis Buffer (25 mM Tris-phosphate (pH7.8), 10% glycerol, 1% TritonX-100, 1 mg/ml BSA, 2 mM EGTA and 2 mM DTT) and incubated for 10 min at RT. Cell lysis is verified using a phase contrast microscope, and the lysates transferred to a white bottom 96-well tray. Luminescence is developed by injection of 5 microliters of D-luciferin solution dissolved in Reaction Buffer (25 mM Glycylglycine (pH 7.8), 15 mM MgSO4, 4 mM EDTA, 15 mM Potassium phosphate, 1 mM DTT, 1 mM Coenzyme A, 6.7 mM ATP and 3.35 mM D-luciferin). After 4 sec with shaking, luminescence values were measured using the lens filter at gains of 2000-3000.
# Temporal response assays are used to define the timing of TR-regulated translation during incubation in toxic levels of a cytotoxic agent. HEK293 TRplp-fLUC subclone #3 and HEK293 TRdm-fLUC subclone #45 are cultured in 6.7 micromolar calcium ionophore A23187 for various times (0 hr, 1.5 hr, 3 hr, 4.5 hr, 6 hr, 7.5 hr, 9 hr, 10.5 hr, 12 hr and 13.5 hr) and analyzed as described above using a lysed cell luciferase assay (FIG. 11).
# [2] = test system: HEK293 cells transformed with the CMV-EYFP, TRplp-EYFP or TRdm-EYFP expression cassettes; test: Cytotoxicity assay by fluorescent microscopy, EYFP fluorescent cell counts; type: cell-based, human; conditions: 5 micromolar
# Source text: Fluorescence of single cells, tissues or cell suspensions can be detected and quantitated by several means such as visual inspection under a microscope, automated or semiautomated fluorescence imaging, flow cytometry, fluorescence spectroscopy in a fluorometer or in a microplate reader, using an appropriate filter set. For this example, visual inspection under a microscope (Nikon TE2000-S) was used to validate TR translational regulation in stressed and dying HEK293 cells expressing the TRplp-EYFP, TRdm-EYFP, TRplp-fLUC and TRdm-fLUC mRNAs.
# In this study, HEK293 cells transformed with the CMV-EYFP, TRplp-EYFP or TRdm-EYFP expression cassettes are directly visualized following translation of the spontaneously fluorescent EYFP protein. One day prior to toxin addition, 200,000 cells (HEK293, HEK293 CMV-EYFP, HEK293 TRplp-EYFP or HEK293 TRdm-EYFP) are plated into a six-well tray containing a flame sterilized glass slide. […] Slides were fixed for 10 min in 4% paraformaldehyde, washed extensively with 1×PBS and mounted for fluorescence microscopy.
# Fluorescent cell counts are performed on the 6 hr and 10 hr timepoints using an EYFP-selective filter set (Nikon) and are shown in FIG. 7. In untreated cell cultures, the frequency of EYFP-positive cells range from 1.5-2.5%, which is consistent with the frequency of nonviable cells in these cultures, as determined by Trypan blue staining. […]
structure (smiles),measurement,setting,value
CNc1ccc2oc(C[C@H]3O[C@@]4(CC[C@H]3C)O[C@H]([C@H](C)C(=O)c3ccc[nH]3)[C@H](C)C[C@H]4C)nc2c1C(=O)O [calcium ionophore A23187],"time up to which translational activity increases linearly, values adjusted to HEK293 CMV-fLUC cells",[1]; ratio to CMV-fLUC,12 h
same,time post-incubation by which significant TR-specific translation is detected,[1]; raw luciferase numbers,≤ 1.5 h
same,"time post-incubation up to which translational activity increases linearly, then plateau",[1]; raw luciferase numbers,9 h
same,change in the number of fluorescent cells,[2]; HEK293 or HEK CMV-EYFP cells,no significant change
same,"frequency of fluorescent cells, rise in % of untreated control cultures","[2]; TRplp-EYFP expressing cells, 6 hr and 10 hr",1000-2300%
